Measured values as given in paper PMC6979384, “Characterization of the plant homeodomain (PHD) reader family for their histone tail interactions” (Epigenetics & Chromatin, 2020).

Tests used:
Test in all cases: Histone peptide microarray
Type in all cases: binding, human
Conditions in all cases: sheet "Array Heatmap"
DPF2 (PPC2W2) = test system: DPF2 (PPC2W2)
Outline: (§1)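 Each reader, produced as a GST fusion and purified, was tested at 0.5 μM on synthetic histone peptides (293 in total) carrying single or combinatorial marks. Intensities averaged over four replicates.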

KDM5B (1) = test system: KDM5B (1)
Outline: as §1

KDM4C (TTP) = test system: KDM4C (TTP)
Outline: as §1

KDM5A (1) = test system: KDM5A (1)
Outline: as §1

RAG2 = test system: RAG2
Outline: as §1

BAZ2B = test system: BAZ2B
Outline: as §1

CHD4 (PPCC) = test system: CHD4 (PPCC)
Outline: as §1

PHF23 = test system: PHF23
Outline: as §1

TAF3 = test system: TAF3
Outline: as §1

ING4 = test system: ING4
Outline: as §1

ING2 = test system: ING2
Outline: as §1

TRIM66 (PB) = test system: TRIM66 (PB)
Outline: as §1

MORC3 (CW) = test system: MORC3 (CW)
Outline: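 Binding read as mean relative signal from 4 replicates; microarray held 293 synthetic histone peptides with single or combinatorial PTMs. Each GST-tagged PHD reader was applied at 0.5 μM using the optimized Petell protocol.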

ING3 = test system: ING3
Outline: as §1

PHF2 = test system: PHF2
Outline: as §1

KDM5B (3) = test system: KDM5B (3)
Outline: as §1

PHRF1 (RP) = test system: PHRF1 (RP)
Outline: as §1

MLL5 = test system: MLL5
Outline: as §1

SP140L = test system: SP140L
Outline: as §1

BPTF (PB) = test system: BPTF (PB)
Outline: as §1

ING5 = test system: ING5
Outline: as §1

KDM5A (3) = test system: KDM5A (3)
Outline: as §1

KDM7A = test system: KDM7A
Outline: as §1

DIDO1 = test system: DIDO1
Outline: as §1

PHF8 = test system: PHF8
Outline: as §1

CHD5 (PPCC) = test system: CHD5 (PPCC)
Outline: as §1

PHF21A = test system: PHF21A
Outline: as §1

CHD5 (PCC) = test system: CHD5 (PCC)
Outline: as §1

AIRE (PP) = test system: AIRE (PP)
Outline: as §1

PHF13 = test system: PHF13
Outline: as §1

ING1 = test system: ING1
Outline: as §1

[1] = GST-tagged reader, histone peptide array, total n = 4
[2] = GST-tagged DPF2 (PPC2W2), arrays performed twice, total replicate number n = 4
[3] = GST-tagged KDM5B (1), arrays performed twice, total replicate number n = 4
[4] = GST-tagged KDM4C (TTP), arrays performed twice, total replicate number n = 4
[5] = GST-tagged KDM5A (1), arrays performed twice, total replicate number n = 4
[6] = GST-tagged RAG2, arrays performed twice, total replicate number n = 4
[7] = GST-tagged BAZ2B, arrays performed twice, total replicate number n = 4
[8] = GST-tagged CHD4 (PPCC), arrays performed twice, total replicate number n = 4
[9] = GST-tagged PHF23, arrays performed twice, total replicate number n = 4
[10] = GST-tagged TAF3, arrays performed twice, total replicate number n = 4
[11] = GST-tagged ING4, arrays performed twice, total replicate number n = 4
[12] = GST-tagged ING2, arrays performed twice, total replicate number n = 4
[13] = GST-tagged TRIM66 (PB), arrays performed twice, total replicate number n = 4
[14] = GST-tagged MORC3 (CW), arrays performed twice, total replicate number n = 4
[15] = GST-tagged ING3, arrays performed twice, total replicate number n = 4
[16] = GST-tagged PHF2, arrays performed twice, total replicate number n = 4
[17] = GST-tagged KDM5B (3), arrays performed twice, total replicate number n = 4
[18] = GST-tagged PHRF1 (RP), arrays performed twice, total replicate number n = 4
[19] = GST-tagged MLL5, arrays performed twice, total replicate number n = 4
[20] = GST-tagged SP140L, arrays performed twice, total replicate number n = 4
[21] = GST-tagged BPTF (PB), arrays performed twice, total replicate number n = 4
[22] = GST-tagged ING5, arrays performed twice, total replicate number n = 4
[23] = GST-tagged KDM5A (3), arrays performed twice, total replicate number n = 4
[24] = GST-tagged KDM7A, arrays performed twice, total replicate number n = 4
[25] = GST-tagged DIDO1, arrays performed twice, total replicate number n = 4
[26] = GST-tagged PHF8, arrays performed twice, total replicate number n = 4
[27] = GST-tagged CHD5 (PPCC), arrays performed twice, total replicate number n = 4
[28] = GST-tagged PHF21A, arrays performed twice, total replicate number n = 4
[29] = GST-tagged CHD5 (PCC), arrays performed twice, total replicate number n = 4
[30] = GST-tagged AIRE (PP), arrays performed twice, total replicate number n = 4
[31] = GST-tagged PHF13, arrays performed twice, total replicate number n = 4
[32] = GST-tagged ING1, arrays performed twice, total replicate number n = 4

H3 (74-84): H3 74-84 (IAQDFKTDLRF; UniProt P68431 75-85, looked up, fragment)
Array Heatmap signal, DPF2 (PPC2W2) (DPF2 (PPC2W2); [1]): 0.6874 | Array Heatmap signal, KDM5B (1) (KDM5B (1); [1]): 0.6254 | Array Heatmap signal, KDM4C (TTP) (KDM4C (TTP); [1]): 0.5485 | Array Heatmap signal, KDM5A (1) (KDM5A (1); [1]): 0.5057 | Array Heatmap signal, RAG2 (RAG2; [1]): 0.2597 | Array Heatmap signal, BAZ2B (BAZ2B; [1]): 0.5314 | Array Heatmap signal, CHD4 (PPCC) (CHD4 (PPCC); [1]): 0.6103 | Array Heatmap signal, PHF23 (PHF23; [1]): 0.5211 | Array Heatmap signal, TAF3 (TAF3; [1]): 0.2746 | Array Heatmap signal, ING4 (ING4; [1]): 0.5059 | Array Heatmap signal, ING2 (ING2; [1]): 0.5988 | Array Heatmap signal, TRIM66 (PB) (TRIM66 (PB); [1]): 0.6388 | Array Heatmap signal, MORC3 (CW) (MORC3 (CW); [1]): 0.3965 | Array Heatmap signal, ING3 (ING3; [1]): 0.4892 | Array Heatmap signal, PHF2 (PHF2; [1]): 0.4839 | Array Heatmap signal, KDM5B (3) (KDM5B (3); [1]): 0.5142 | Array Heatmap signal, PHRF1 (RP) (PHRF1 (RP); [1]): 0.4358 | Array Heatmap signal, MLL5 (MLL5; [1]): 0.5674 | Array Heatmap signal, SP140L (SP140L; [1]): 0.3639 | Array Heatmap signal, BPTF (PB) (BPTF (PB); [1]): 0.3631 | Array Heatmap signal, ING5 (ING5; [1]): 0.3977 | Array Heatmap signal, KDM5A (3) (KDM5A (3); [1]): 0.4265 | Array Heatmap signal, KDM7A (KDM7A; [1]): 0.4511 | Array Heatmap signal, DIDO1 (DIDO1; [1]): 0.6796 | Array Heatmap signal, PHF8 (PHF8; [1]): 0.3649 | Array Heatmap signal, CHD5 (PPCC) (CHD5 (PPCC); [1]): 0.6043 | Array Heatmap signal, PHF21A (PHF21A; [1]): 0.5055 | Array Heatmap signal, CHD5 (PCC) (CHD5 (PCC); [1]): 0.8536 | Array Heatmap signal, AIRE (PP) (AIRE (PP); [1]): 0.5836 | Array Heatmap signal, PHF13 (PHF13; [1]): 0.6585 | Array Heatmap signal, ING1 (ING1; [1]): 0.527

H3.3 15-34: H3.3 15-34
Array Heatmap signal, DPF2 (PPC2W2) (DPF2 (PPC2W2); [2]): 0.6732 | Array Heatmap signal, KDM5B (1) (KDM5B (1); [3]): 0.7186 | Array Heatmap signal, KDM4C (TTP) (KDM4C (TTP); [4]): 0.5726 | Array Heatmap signal, KDM5A (1) (KDM5A (1); [5]): 0.5272 | Array Heatmap signal, RAG2 (RAG2; [6]): 0.2498 | Array Heatmap signal, BAZ2B (BAZ2B; [7]): 0.5105 | Array Heatmap signal, CHD4 (PPCC) (CHD4 (PPCC); [8]): 0.5508 | Array Heatmap signal, PHF23 (PHF23; [9]): 0.5121 | Array Heatmap signal, TAF3 (TAF3; [10]): 0.298 | Array Heatmap signal, ING4 (ING4; [11]): 0.4948 | Array Heatmap signal, ING2 (ING2; [12]): 0.6004 | Array Heatmap signal, TRIM66 (PB) (TRIM66 (PB); [13]): 0.563 | Array Heatmap signal, MORC3 (CW) (MORC3 (CW); [14]): 0.367 | Array Heatmap signal, ING3 (ING3; [15]): 0.4684 | Array Heatmap signal, PHF2 (PHF2; [16]): 0.4208 | Array Heatmap signal, KDM5B (3) (KDM5B (3); [17]): 0.5078 | Array Heatmap signal, PHRF1 (RP) (PHRF1 (RP); [18]): 0.4107 | Array Heatmap signal, MLL5 (MLL5; [19]): 0.5484 | Array Heatmap signal, SP140L (SP140L; [20]): 0.3703 | Array Heatmap signal, BPTF (PB) (BPTF (PB); [21]): 0.3589 | Array Heatmap signal, ING5 (ING5; [22]): 0.3926 | Array Heatmap signal, KDM5A (3) (KDM5A (3); [23]): 0.4324 | Array Heatmap signal, KDM7A (KDM7A; [24]): 0.5038 | Array Heatmap signal, DIDO1 (DIDO1; [25]): 0.6133 | Array Heatmap signal, PHF8 (PHF8; [26]): 0.386 | Array Heatmap signal, CHD5 (PPCC) (CHD5 (PPCC); [27]): 0.5888 | Array Heatmap signal, PHF21A (PHF21A; [28]): 0.4988 | Array Heatmap signal, CHD5 (PCC) (CHD5 (PCC); [29]): 0.807 | Array Heatmap signal, AIRE (PP) (AIRE (PP); [30]): 0.5768 | Array Heatmap signal, PHF13 (PHF13; [31]): 0.6359 | Array Heatmap signal, ING1 (ING1; [32]): 0.5055

H3.3 30-49: H3.3 30-49
Array Heatmap signal, DPF2 (PPC2W2) (DPF2 (PPC2W2); [2]): 0.6135 | Array Heatmap signal, KDM5B (1) (KDM5B (1); [3]): 0.6846 | Array Heatmap signal, KDM4C (TTP) (KDM4C (TTP); [4]): 0.523 | Array Heatmap signal, KDM5A (1) (KDM5A (1); [5]): 0.4724 | Array Heatmap signal, RAG2 (RAG2; [6]): 0.2343 | Array Heatmap signal, BAZ2B (BAZ2B; [7]): 0.4498 | Array Heatmap signal, CHD4 (PPCC) (CHD4 (PPCC); [8]): 0.5572 | Array Heatmap signal, PHF23 (PHF23; [9]): 0.5238 | Array Heatmap signal, TAF3 (TAF3; [10]): 0.2689 | Array Heatmap signal, ING4 (ING4; [11]): 0.4627 | Array Heatmap signal, ING2 (ING2; [12]): 0.5868 | Array Heatmap signal, TRIM66 (PB) (TRIM66 (PB); [13]): 0.5248 | Array Heatmap signal, MORC3 (CW) (MORC3 (CW); [14]): 0.3401 | Array Heatmap signal, ING3 (ING3; [15]): 0.4515 | Array Heatmap signal, PHF2 (PHF2; [16]): 0.404 | Array Heatmap signal, KDM5B (3) (KDM5B (3); [17]): 0.4643 | Array Heatmap signal, PHRF1 (RP) (PHRF1 (RP); [18]): 0.4134 | Array Heatmap signal, MLL5 (MLL5; [19]): 0.5124 | Array Heatmap signal, SP140L (SP140L; [20]): 0.3561 | Array Heatmap signal, BPTF (PB) (BPTF (PB); [21]): 0.3385 | Array Heatmap signal, ING5 (ING5; [22]): 0.3551 | Array Heatmap signal, KDM5A (3) (KDM5A (3); [23]): 0.3975 | Array Heatmap signal, KDM7A (KDM7A; [24]): 0.4094 | Array Heatmap signal, DIDO1 (DIDO1; [25]): 0.5964 | Array Heatmap signal, PHF8 (PHF8; [26]): 0.3443 | Array Heatmap signal, CHD5 (PPCC) (CHD5 (PPCC); [27]): 0.5477 | Array Heatmap signal, PHF21A (PHF21A; [28]): 0.447 | Array Heatmap signal, CHD5 (PCC) (CHD5 (PCC); [29]): 0.7506 | Array Heatmap signal, AIRE (PP) (AIRE (PP); [30]): 0.4614 | Array Heatmap signal, PHF13 (PHF13; [31]): 0.586 | Array Heatmap signal, ING1 (ING1; [32]): 0.4817
